Reference: patent US7371729B2, “Boronic acid salts useful in parenteral formulations” (Trigen Limited, priority 2002, dated 2008)
pIC50, pKi: −log10 of the molar value. Counter-ions that a name gives are not always drawn. Like-named read-outs stand apart in the source and are kept apart here.

Columns and labels:
[1] = Hydrolysis of TRI 50b in acid conditions (HPLC assay); assay type: physicochemical; conditions: for example of an HPLC assay
Description: It has been discovered that TRI 50b tends to hydrolyse.

washed platelets = assay: Aggregation of washed platelets; assay type: cell-based
[2] = i.v. pharmacokinetics in rats; assay type: in vivo; conditions: plasma, rat, 1.0 mg/kg iv; for half-life: read-out: Elimination half life; for MRT: read-out: Mean Residence Time (converted)
Description: Rats, body weight circa 250-300 g were used.
Both compounds were given at a dose of 1.0 mg/kg iv.
This was dosed at 1.33 ml/kg (equivalent to 30 mg/kg).

platelet rich thrombus = assay: Rabbit extracorporeal shunt model; assay type: in vivo
Description: The technique describes an animal model in which a platelet rich thrombus is produced. The activity of TRI 50b and heparin are compared.
The carotid artery and jugular vein of anaesthetised rabbits were used to create an extracorporeal circuit containing a suspended foreign surface (silk thread). Thrombus deposition is initiated by creation of high sheer stress turbulent arterial blood flow, platelet activation, followed by coagulation in the presence of thrombogenic surfaces. Histopathological studies have shown that the thrombus is platelet rich.
NZW rabbits (males 2.5-3.5 kg) were used. The animals were allowed food and water up to the induction of anaesthesia.
Animals were premedicated with […] (Hypnorm) 0.15 ml total by intramuscular injection. General anaesthesia was induced with methohexitone (10 mg/ml) to effect, followed by endotracheal intubation. Anaesthesia was maintained with isoflurane (1-2.0%) carried in oxygen/nitrous oxide.
The animals were placed in dorsal recumbency and the ventral cervical region prepared for surgery. The left carotid artery and right jugular vein were exposed. The artery was cannulated with a large Portex® catheter (yellow gauge), cut to a suitable length. The vein was cannulated with a Silastic® catheter. The shunt comprised of a 5 cm length of ‘auto analyser’ line (purple/white gauge). Joins to the shunt on the arterial side were made with intermediate size Silastic® tubing. The shunt was filled with saline before exposure to the circulation. The right femoral artery was cannulated for the measurement of blood pressure.
The central section of the shunt contained a thread 3 centimetres in length. This consisted of 000 gauge Gutterman sewing silk so as to give four strands with a single knot at the end. (The knot section was outside the shunt).
Blood flow velocity was determined by use of ‘Doppler’ probes (Crystal Biotech). A silastic probe was positioned over the carotid artery at the point of insertion of the arterial catheter. Flow was recorded on a chart recorder using heat sensitive paper.

Rat tail bleeding model = assay type: in vivo
Description: Bleeding times were determined in a rat tail bleeding model following intravenous administration of heparin and TRI 50b. The doses employed were chosen on the basis of their efficacy in the rat Wessler and dynamic models and were as follows:
Rats were anaesthetised with sodium pentabarbitone at 60 mg/kg (2.0 ml/kg of 30 mg/ml solution by ip. injection). Supplemental anaesthetic was given ip. as required.
A jugular vein was cannulated for the administration of test compound. The trachea was also cannulated with a suitable cannula and the animals allowed to breathe ‘room air’ spontaneously.
These were given in the appropriate vehicle at 1.0 ml/kg intravenously. Heparin was administered in saline, whilst TRI 50b was dissolved in ethanol, and then the resultant solution added to water for injection (1 part ethanol to 5 parts water).
Two minutes following compound administration the distal 2 mm of the animal's tail was sectioned with a new scalpel blade and the tail immersed in warm saline (37° C.) contained in a standard ‘universal’ container, so that the blood stream was clearly visible. The bleeding time recording was started immediately following transection until the cessation of blood flow from the tip of the tail.

human α-thrombin = human α-thrombin (Homo sapiens, UniProt P00734); conditions: reported by J. Deadman et al, J. Med. Chem. 1995; cited from earlier work
[3] = test system: platelet procoagulant activity; assay: Inhibition of platelet procoagulant activity (washed platelets, prothrombin activation); assay type: cell-based; conditions: agonist Thrombin (1.15 nM)
Description: Platelet pro-coagulant activity may be observed as the increase, in rate of activation of prothrombin by factor Xa in the presence of factor Va upon the addition of platelets pretreated with thrombin, caused by thrombin alone, collagen alone or a mixture of thrombin and collagen. This property is due to an increase in anionic phospholipid on the surface of the platelet with concomitant release of microvesicle from the surface. This is an essential physiological reaction and people whose platelets have reduced ability to generate procoagulant activity (Scott syndrome) show an increased tendency for bleeding.
Washed platelets were treated with either 1.15 nM thrombin, 23 μg/ml collagen or a mixture of both at the same concentration at 37° C. TRI 50b was added either for 1 minute prior to the addition of activator or immediately after the incubation with activator. Platelet procoagulant activity was determined as described previously (Goodwin C A et al, Biochem J. 1995 8, 308: 15-21).

[4] = Tolerability in beagle dogs after i.v. dose; assay type: in vivo; conditions: dog, 1.0 mg/kg i.v., total duration of the study
Description: Blood samples were taken into 3.8% tri-sodium citrate (1+8) at pre dose, 2, 5, 10, 20, 30, minutes post dose and then at 1, 2, 3, 4, 6, 8, 12 and 24 hours post dose. Plasma was prepared by centrifugation and frozen at minus 20° C. pending analysis.

[5] = Stability: HPLC-PDA assay before and after drying over phosphorus pentoxide for 1 week; assay type: physicochemical
Description: An assay of TRI 50c and its sodium and lysine salts before and after drying.
For sample analysis, 5 mg of dried and non-dried material was weighed in a 5 mL volumetric flask and dissolved in 1 mL acetonitrile and filled up with demineralised water to 5 mL.
The quantitative evaluation was performed using an HPLC-PDA method.

Thrombin = biological target: T1, Thrombin (Homo sapiens, UniProt P00734); assay: Thrombin amidolytic assay (Vmax, S2238); assay type: biochemical; conditions: FIG. 1; TRI 50b as external control
T1 construct: Thrombin obtained from HTI, via Cambridge Bioscience; purchased HTI, via Cambridge Bioscience
Description: Chromogenic substrate S2238 dissolved to 4 mM (25 mg+10 mI) in water. Diluted to 50 μM with assay buffer for use in assay at 5 μM. (S2238 is H-D-Phe-Pip-Arg-pNA).
Thrombin obtained from HTI, via Cambridge Bioscience, and aliquoted at 1 mg/ml with assay buffer. Dilute to 100 ng/ml with assay buffer and then a further 1 in 3 for use in the assay.

With `COCCC[C@H](NC(=O)[C@@H]1CCCN1C(=O)[C@@H](Cc1ccccc1)NC(=O)OCc1ccccc1)B1OC(C)(C)C(C)(C)O1` [TRI 50b, Cbz-(R)-Phe-Pro-BoroMpg-OPinacol] the “hydrolysis to the acid form, half life” value [1] was “short half life”, the “effect on ADP, collagen or epinephrine induced aggregation of washed platelets” value (washed platelets) was “does not have an effect” and the clearance [2] was 10 mL/min/kg. For the same compound, the half-life [2] was 35 min, the MRT [2] was 46 min and the “ANTITHROMBOTIC ACTIVITY” value (platelet rich thrombus; 3.0 mg/kg iv) was “Active”. For the same compound, the “bleeding in shunt model” value (platelet rich thrombus; 3 mg/kg to 10 mg/kg iv) was “without bleeding”, the “ANTITHROMBOTIC ACTIVITY” value (platelet rich thrombus; 10 mg/kg iv) was “Active” and the “Bleeding time min (±SEM)” value (Rat tail bleeding model; 5 mg/kg iv) was 11.3 ± 1.2 min. For the same compound, the “Bleeding time min (±SEM)” value (Rat tail bleeding model; 10 mg/kg iv) was 30.4 ± 5.2 min, the pKi (human α-thrombin) was 8.15 and the pIC50 ([3]; TRI 50b added 1 minute prior to activator, read-out: IC50 plus pre-incubation) was 8.10. It also gave a pIC50 ([3]; TRI 50b added after incubation with activator, read-out: IC50 without incubation) of 5.52.
With `COCCC[C@H](NC(=O)[C@@H]1CCCN1C(=O)[C@@H](Cc1ccccc1)NC(=O)OCc1ccccc1)B(O)O` [TRI 50c sodium salt, Cbz-(R)-Phe-(S)-Pro-(R)-Mpg-B(OH)2 monosodium salt] the tolerability [4] was “tolerated well with no adverse events” and the “stability: effect of drying on purity” value ([5]; in words) was “not significantly reduced”.
With `COCCC[C@H](NC(=O)[C@@H]1CCCN1C(=O)[C@@H](Cc1ccccc1)NC(=O)OCc1ccccc1)B(O)O` [TRI 50c, Cbz-(R)-Phe-(S)-Pro-(R)-boroMpg-OH] the clearance [2] was 11.3 mL/min/kg, the half-life [2] was 36.6 min and the MRT [2] was 45 min. For the same compound, the “Purity (% area)” value ([5]; non-dried) was 85.54 % area and the Amount ([5]; non-dried, 5 mg in 5 mL) was 947.3 µg/mL.
For `COCCC[C@H](NC(=O)[C@@H]1CCCN1C(=O)[C@@H](Cc1ccccc1)NC(=O)OCc1ccccc1)B([O-])O.COCCC[C@H](NC(=O)[C@@H]1CCCN1C(=O)[C@@H](Cc1ccccc1)NC(=O)OCc1ccccc1)B([O-])O.[Mg+2]` [magnesium salt of TRI 50c], the “activity in thrombin amidolytic assay (Vmax)” value (Thrombin) was “same activity as TRI 50b”.
